Data as given in paper PMC6353901, “Systematic characterization of position one variants within the lantibiotic nisin” (Scientific Reports, 2019).
Ends that are not written are not given here.

Each compound was assayed on NisP (assay: Leader peptide cleavage of pre-nisin variants by NisP (RP-HPLC)). Conditions: in vitro cleavage of the leader peptide from purified pre-nisin (variant) by purified secreted NisP, overnight at 8 °C, integration of leader peptide peaks.
Assay type: biochemical, Lactococcus lactis
Excerpt: Step IV concerns leader peptide cleavage and thereby activation of the purified pre-nisin variants. Here, we used the secreted variant of the natural leader peptidase NisP, by which the leader peptide is cleaved in vitro and the cleavage efficiency (%) can be calculated as recently shown. We used an RP-HPLC set-up to monitor product formation, in which the appearance of the leader peptide in the chromatograms was used to determine the concentration of activated nisin (Supplementary Fig. S3). […] The nisin core peptide eluted at a later retention time of approximately 23 min (Supplementary Fig. S3). […] However, in the case of the I1 mutants I1A, I1G, I1T, I1S, I1K, I1R, I1H, I1Q, I1E, I1N and I1D) the formation of a core peptide peak in terms of a new and separated peak in the chromatogram was not observed (Supplementary Fig. S4). Rather, the peaks with a retention time between 18–21 min contained both species, the cleaved and non-cleaved lantibiotic, and can therefore not be deconvoluted for proper determination of the amount of activated nisin. […] The concentration was calculated based on a standard calibration curve (Supplementary Fig. S5), where we precisely determined the concentration of the activated nisin or I1 mutants. We used this concentration determination instead of the colorimetric protein concentration determination as for example Bradford or the BCA-assay since the latter two assays cannot differentiate between the activated and non-activated form of the secreted variants. Since nisin is not active unless the leader is cleaved off, the determination of the area of the leader peak to calculate the amount of the activated lantibiotic directly relates to the antimicrobial activity without need to further purify the peptide after cleavage.
All I1 mutations were subjected to NisP cleavage and most of the variants were cleaved, but a strong influence of the nature of the I1 substitutions with respect to cleavage efficiency was observed (Supplementary Fig. S6). The cleavage efficiency for wild type pre-nisin A was 94.3 ± 1.7% but lower for the mutants I1M, I1L, I1A and I1V (72.3 ± 1.4%, 72.4 ± 1.3%, 81.0 ± 1.8% and 58.1± 2.8%, respectively). […] This holds especially in those cases, where the amino acid at position one was exchanged to a charged amino acid (e.g. I1K 9.2 ± 1.3%; I1E 9.5 ± 0.7%) or contained a bulky hydrophobic side chain (e.g. I1F 12.9 ± 0.8%; I1W 5.7 ± 0.2%; I1Y 22.6 ± 2.3%) (Supplementary Fig. S6). […] Even after an extensive prolongation of the incubation time, no leader peptide peak was detected in the RP-HPLC chromatogram (Supplementary Fig. S4). It is important to stress in this context that the cleavage efficiencies cannot be determined from Tricine-SDS gels (20%). Here, the leader peptide as well as the core peptide would co-migrate, which obviously will falsify the staining results.
Pre-nisin and its variants were expressed and purified as previously described[41],[49],[69]. The purity of pre-nisin and its variants was controlled by Tricine-SDS-PAGE (20%)[70]. The activation of all variants was performed by NisP cleavage overnight at 8 °C. Pre-nisin cleavage and its variants was monitored by RP-HPLC[49],[69].
Pre-nisin and the activated nisin variants were analysed by RP-HPLC (Agilent Technologies 1260 Infinity II) with a LiChrospher WP 300 RP-18 end-capped column and an acetonitrile/water solvent system. The cleavage efficiency and the concentration of active lantibiotic was calculated as described previously[49],[69].

Compound | cleavage efficiency by NisP
C=C(NC(=O)[C@@H](NC(=O)[C@H](Cc1c[nH]cn1)NC(=O)[C@@H](NC(=O)[C@H](CO)NC(=O)[C@@H]1CS[C@@H](C)[C@H]2NC(=O)[C@H](C)NC(=O)[C@H](NC(=O)[C@H](CCCCN)NC(=O)[C@H](CCSC)NC(=O)[C@H](CC(N)=O)NC(=O)[C@@H]3CS[C@@H](C)[C@@H](NC(=O)[C@H](CCCCN)NC(=O)[C@@H]4CS[C@@H](C)[C@@H](NC(=O)[C@@H]5CSC[C@@H](NC(=O)/C(=C/C)NC(=O)[C@@H](N)CCC(=O)O)C(=O)N[C@@H]([C@@H](C)CC)C(=O)NC(=C)C(=O)N[C@@H](CC(C)C)C(=O)N5)C(=O)N5CCC[C@H]5C(=O)NCC(=O)N4)C(=O)NCC(=O)N[C@@H](C)C(=O)N[C@@H](CC(C)C)C(=O)N[C@@H](CCSC)C(=O)NCC(=O)N3)[C@H](C)SC[C@H](NC2=O)C(=O)N[C@@H](Cc2c[nH]cn2)C(=O)N1)[C@@H](C)CC)C(C)C)C(=O)N[C@@H](CCCCN)C(=O)O [I1E] | 9.5 ± 0.7%
C=C(NC(=O)[C@@H](NC(=O)[C@H](Cc1c[nH]cn1)NC(=O)[C@@H](NC(=O)[C@H](CO)NC(=O)[C@@H]1CS[C@@H](C)[C@H]2NC(=O)[C@H](C)NC(=O)[C@H](NC(=O)[C@H](CCCCN)NC(=O)[C@H](CCSC)NC(=O)[C@H](CC(N)=O)NC(=O)[C@@H]3CS[C@@H](C)[C@@H](NC(=O)[C@H](CCCCN)NC(=O)[C@@H]4CS[C@@H](C)[C@@H](NC(=O)[C@@H]5CSC[C@@H](NC(=O)/C(=C/C)NC(=O)[C@@H](N)CC(C)C)C(=O)N[C@@H]([C@@H](C)CC)C(=O)NC(=C)C(=O)N[C@@H](CC(C)C)C(=O)N5)C(=O)N5CCC[C@H]5C(=O)NCC(=O)N4)C(=O)NCC(=O)N[C@@H](C)C(=O)N[C@@H](CC(C)C)C(=O)N[C@@H](CCSC)C(=O)NCC(=O)N3)[C@H](C)SC[C@H](NC2=O)C(=O)N[C@@H](Cc2c[nH]cn2)C(=O)N1)[C@@H](C)CC)C(C)C)C(=O)N[C@@H](CCCCN)C(=O)O [I1L] | 72.4 ± 1.3%
I1P: nisin A variant, position one exchanged to P; pre-peptide not cleaved by NisP (MSTKDFNLDLVSVSKKDSGASPRPTSISLCTPGCKTGALMGCNMKTATCHCSIHVSK; ends and bridges not checked; cysteine pairing not given here; UniProt P13068 1-57, looked up, variant I1P) | not cleaved at all
C=C(NC(=O)[C@@H](NC(=O)[C@H](Cc1c[nH]cn1)NC(=O)[C@@H](NC(=O)[C@H](CO)NC(=O)[C@@H]1CS[C@@H](C)[C@H]2NC(=O)[C@H](C)NC(=O)[C@H](NC(=O)[C@H](CCCCN)NC(=O)[C@H](CCSC)NC(=O)[C@H](CC(N)=O)NC(=O)[C@@H]3CS[C@@H](C)[C@@H](NC(=O)[C@H](CCCCN)NC(=O)[C@@H]4CS[C@@H](C)[C@@H](NC(=O)[C@@H]5CSC[C@@H](NC(=O)/C(=C/C)NC(=O)[C@@H](N)Cc6c[nH]c7ccccc67)C(=O)N[C@@H]([C@@H](C)CC)C(=O)NC(=C)C(=O)N[C@@H](CC(C)C)C(=O)N5)C(=O)N5CCC[C@H]5C(=O)NCC(=O)N4)C(=O)NCC(=O)N[C@@H](C)C(=O)N[C@@H](CC(C)C)C(=O)N[C@@H](CCSC)C(=O)NCC(=O)N3)[C@H](C)SC[C@H](NC2=O)C(=O)N[C@@H](Cc2c[nH]cn2)C(=O)N1)[C@@H](C)CC)C(C)C)C(=O)N[C@@H](CCCCN)C(=O)O [I1W] | 5.7 ± 0.2%
C=C(NC(=O)[C@@H](NC(=O)[C@H](Cc1c[nH]cn1)NC(=O)[C@@H](NC(=O)[C@H](CO)NC(=O)[C@@H]1CS[C@@H](C)[C@H]2NC(=O)[C@H](C)NC(=O)[C@H](NC(=O)[C@H](CCCCN)NC(=O)[C@H](CCSC)NC(=O)[C@H](CC(N)=O)NC(=O)[C@@H]3CS[C@@H](C)[C@@H](NC(=O)[C@H](CCCCN)NC(=O)[C@@H]4CS[C@@H](C)[C@@H](NC(=O)[C@@H]5CSC[C@@H](NC(=O)/C(=C/C)NC(=O)[C@@H](N)C(C)C)C(=O)N[C@@H]([C@@H](C)CC)C(=O)NC(=C)C(=O)N[C@@H](CC(C)C)C(=O)N5)C(=O)N5CCC[C@H]5C(=O)NCC(=O)N4)C(=O)NCC(=O)N[C@@H](C)C(=O)N[C@@H](CC(C)C)C(=O)N[C@@H](CCSC)C(=O)NCC(=O)N3)[C@H](C)SC[C@H](NC2=O)C(=O)N[C@@H](Cc2c[nH]cn2)C(=O)N1)[C@@H](C)CC)C(C)C)C(=O)N[C@@H](CCCCN)C(=O)O [I1V] | 58.1± 2.8%
C=C(NC(=O)[C@@H](NC(=O)[C@H](Cc1c[nH]cn1)NC(=O)[C@@H](NC(=O)[C@H](CO)NC(=O)[C@@H]1CS[C@@H](C)[C@H]2NC(=O)[C@H](C)NC(=O)[C@H](NC(=O)[C@H](CCCCN)NC(=O)[C@H](CCSC)NC(=O)[C@H](CC(N)=O)NC(=O)[C@@H]3CS[C@@H](C)[C@@H](NC(=O)[C@H](CCCCN)NC(=O)[C@@H]4CS[C@@H](C)[C@@H](NC(=O)[C@@H]5CSC[C@@H](NC(=O)/C(=C/C)NC(=O)[C@@H](N)Cc6ccc(O)cc6)C(=O)N[C@@H]([C@@H](C)CC)C(=O)NC(=C)C(=O)N[C@@H](CC(C)C)C(=O)N5)C(=O)N5CCC[C@H]5C(=O)NCC(=O)N4)C(=O)NCC(=O)N[C@@H](C)C(=O)N[C@@H](CC(C)C)C(=O)N[C@@H](CCSC)C(=O)NCC(=O)N3)[C@H](C)SC[C@H](NC2=O)C(=O)N[C@@H](Cc2c[nH]cn2)C(=O)N1)[C@@H](C)CC)C(C)C)C(=O)N[C@@H](CCCCN)C(=O)O [I1Y] | 22.6 ± 2.3%
C=C(NC(=O)[C@@H](NC(=O)[C@H](Cc1c[nH]cn1)NC(=O)[C@@H](NC(=O)[C@H](CO)NC(=O)[C@@H]1CS[C@@H](C)[C@H]2NC(=O)[C@H](C)NC(=O)[C@H](NC(=O)[C@H](CCCCN)NC(=O)[C@H](CCSC)NC(=O)[C@H](CC(N)=O)NC(=O)[C@@H]3CS[C@@H](C)[C@@H](NC(=O)[C@H](CCCCN)NC(=O)[C@@H]4CS[C@@H](C)[C@@H](NC(=O)[C@@H]5CSC[C@@H](NC(=O)/C(=C/C)NC(=O)[C@@H](N)Cc6ccccc6)C(=O)N[C@@H]([C@@H](C)CC)C(=O)NC(=C)C(=O)N[C@@H](CC(C)C)C(=O)N5)C(=O)N5CCC[C@H]5C(=O)NCC(=O)N4)C(=O)NCC(=O)N[C@@H](C)C(=O)N[C@@H](CC(C)C)C(=O)N[C@@H](CCSC)C(=O)NCC(=O)N3)[C@H](C)SC[C@H](NC2=O)C(=O)N[C@@H](Cc2c[nH]cn2)C(=O)N1)[C@@H](C)CC)C(C)C)C(=O)N[C@@H](CCCCN)C(=O)O [I1F] | 12.9 ± 0.8%
C=C(NC(=O)[C@@H](NC(=O)[C@H](Cc1c[nH]cn1)NC(=O)[C@@H](NC(=O)[C@H](CO)NC(=O)[C@@H]1CS[C@@H](C)[C@H]2NC(=O)[C@H](C)NC(=O)[C@H](NC(=O)[C@H](CCCCN)NC(=O)[C@H](CCSC)NC(=O)[C@H](CC(N)=O)NC(=O)[C@@H]3CS[C@@H](C)[C@@H](NC(=O)[C@H](CCCCN)NC(=O)[C@@H]4CS[C@@H](C)[C@@H](NC(=O)[C@@H]5CSC[C@@H](NC(=O)/C(=C/C)NC(=O)[C@@H](N)CCCCN)C(=O)N[C@@H]([C@@H](C)CC)C(=O)NC(=C)C(=O)N[C@@H](CC(C)C)C(=O)N5)C(=O)N5CCC[C@H]5C(=O)NCC(=O)N4)C(=O)NCC(=O)N[C@@H](C)C(=O)N[C@@H](CC(C)C)C(=O)N[C@@H](CCSC)C(=O)NCC(=O)N3)[C@H](C)SC[C@H](NC2=O)C(=O)N[C@@H](Cc2c[nH]cn2)C(=O)N1)[C@@H](C)CC)C(C)C)C(=O)N[C@@H](CCCCN)C(=O)O [I1K] | 9.2 ± 1.3%
C=C(NC(=O)[C@@H](NC(=O)[C@H](Cc1c[nH]cn1)NC(=O)[C@@H](NC(=O)[C@H](CO)NC(=O)[C@@H]1CS[C@@H](C)[C@H]2NC(=O)[C@H](C)NC(=O)[C@H](NC(=O)[C@H](CCCCN)NC(=O)[C@H](CCSC)NC(=O)[C@H](CC(N)=O)NC(=O)[C@@H]3CS[C@@H](C)[C@@H](NC(=O)[C@H](CCCCN)NC(=O)[C@@H]4CS[C@@H](C)[C@@H](NC(=O)[C@@H]5CSC[C@@H](NC(=O)/C(=C/C)NC(=O)[C@@H](N)CCSC)C(=O)N[C@@H]([C@@H](C)CC)C(=O)NC(=C)C(=O)N[C@@H](CC(C)C)C(=O)N5)C(=O)N5CCC[C@H]5C(=O)NCC(=O)N4)C(=O)NCC(=O)N[C@@H](C)C(=O)N[C@@H](CC(C)C)C(=O)N[C@@H](CCSC)C(=O)NCC(=O)N3)[C@H](C)SC[C@H](NC2=O)C(=O)N[C@@H](Cc2c[nH]cn2)C(=O)N1)[C@@H](C)CC)C(C)C)C(=O)N[C@@H](CCCCN)C(=O)O [I1M] | 72.3 ± 1.4%
